{
  "source": "patent US20240398818A1",
  "about": "“Cardiosafe Antidiabetic Therapy” (priority 2018, published 2024)",
  "key": {"[1]": {"tested_on": "patients with T2D", "settings": "compared to placebo; cited from earlier work"}, "[2]": {"tested_on": "adult patients with early type 2 diabetes mellitus and increased CV risk or established complications", "assay": "Cardiovascular Safety Trial (linagliptin versus glimepiride)", "format": "in vivo", "description": "The effect of linagliptin on cardiovascular risk in adult patients with early type 2 diabetes mellitus and increased CV risk or established complications was evaluated in this Cardiovascular Safety Trial, a multi-center, multi-national, randomized, double-blind parallel group trial. The trial compared the risk of experiencing a major adverse cardiovascular event (MACE) between linagliptin and glimepiride when these were added to standard of care (including background therapy with metformin) based on regional standards for HbA1c and CV risk factors. The trial was event driven and patients were followed until at least 631 primary outcome events accrued.\nA total of 6033 patients were treated (linagliptin 5 mg=3023; glimepiride 1 mg to 4 mg=3010) and followed for a median of 6.25 years (median time on treatment 5.9 years). Approximately 73% of the study population was Caucasian, 18% was Asian, and 5% was Black. The mean age was 64 years and 60% were male.\nAt baseline, disease characteristics were balanced. […] The trial population included 2030 (34%) patients ≥70 years of age, 2089 (35%) patients with cardiovascular disease, and 1130 (19%) patients with renal impairment with an eGFR <60 mL/min/1.73 m2 at baseline. Overall, the previous use of diabetes medications was balanced across treatment groups (metformin 83% continued as background therapy, sulfonylurea 28% discontinued prior to randomization), patients on insulin were excluded. The use of medications to reduce cardiovascular risk was also balanced (aspirin 47%, statins 65%, ACE inhibitors or ARBs 74%, beta blockers 39%, and calcium channel blockers 30%).\nThe primary endpoint in this Cardiovascular Safety Trial was the time to first occurrence of three point (3P) MACE. A major adverse cardiac event was defined as a cardiovascular death or a nonfatal myocardial infarction (MI) or a nonfatal stroke. The statistical analysis plan tested for non-inferiority for the occurrence of 3P MACE. The key secondary endpoint evaluated the composite of treatment sustainability defined as the proportion of patients on study treatment, that maintain glycemic control (HbA1c≤7.0%) without need for additional antidiabetic drug therapy (rescue medication), without any moderate (symptomatic with glucose value <70 mg/dL) or severe (requiring assistance) hypoglycemic episodes, and without >2% weight gain from baseline.\nCardiovascular Outcome Trial of Linagliptin Versus Glimepriride in Type 2 Diabetes—assessing long-term cardiovascular impact of linagliptin versus the sulphonylurea glimepiride in subjects with early type 2 diabetes and increased cardiovascular risk or established complications. […]\nType 2 diabetes patient with insufficient glycemic control (naïve or currently treated (mono or dual therapy) with e.g. metformin and/or an alpha-glucosidase inhibitor (e.g. having HbA1c 6.5-8.5%), or currently treated (mono or dual therapy) with e.g. a sulphonylurea or glinide, with or without metformin or an alpha-glucosidase inhibitor (e.g. having HbA1c 6.5-7.5%)) and increased or high risk of cardiovascular events, e.g. defined as one or more of risk factors A), B), C) and D) indicated below, are randomized* and treated over a lengthy period (e.g. up to 432 weeks) with linagliptin (5 mg, q.d., optionally in combination with one or more other active substances, e.g. such as added to existing antidiabetic background) and compared with patients treated with the sulphonylurea glimepiride (1-4 mg once daily). * Upon randomization, if a patient is on a SU or glinide, this secretagogue therapy is discontinued and replaced with study medication. For patients not on a secretagogue, study medication is added to the existing regimen.\nTime to first occurrence of any of the following adjudicated components of the primary composite endpoint: […]"}, "[3]": {"settings": "baseline to Final Visit, all observed cases"}, "[4]": {"settings": "baseline to Final Visit, observed cases including values after rescue medication"}, "[5]": {"settings": "both, human, in vivo, 5.9 years"}, "[6]": {"settings": "both, human, in vivo, 6.25 years"}, "[7]": {"settings": "component of secondary composite"}, "[8]": {"settings": "from end of titration (16 weeks) to final visit"}, "[9]": {"settings": "median follow-up 6.25 years, listed as glimepiride"}},
  "data": [
    {"smiles": "N[C@@H](CC(=O)N1CCn2c(nnc2C(F)(F)F)C1)Cc1cc(F)c(F)cc1F", "note": "[sitagliptin]", "values": [
      {"measurement": "effect on major adverse CV event (MACE) outcomes (in words)", "setting": "[1]", "value": "neutral effect"}
    ]},
    {"smiles": "Cn1c(=O)cc(N2CCC[C@@H](N)C2)n(Cc2ccccc2C#N)c1=O", "note": "[alogliptin]", "values": [
      {"measurement": "effect on major adverse CV event (MACE) outcomes (in words)", "setting": "[1]", "value": "neutral effect"}
    ]},
    {"smiles": "N#C[C@@H]1C[C@@H]2C[C@@H]2N1C(=O)[C@@H](N)C12CC3CC(CC(O)(C3)C1)C2", "note": "[saxagliptin]", "values": [
      {"measurement": "effect on major adverse CV event (MACE) outcomes (in words)", "setting": "[1]", "value": "neutral effect"}
    ]},
    {"smiles": "CCC1=C(C)CN(C(=O)NCCc2ccc(S(=O)(=O)NC(=O)N[C@H]3CC[C@H](C)CC3)cc2)C1=O", "note": "[Glimepiride]", "values": [
      {"measurement": "patients with macroalbuminuria (>300 mg/g)", "setting": "[2]; at Final Visit", "value": 1.4, "unit": "%"},
      {"measurement": "patients with microalbuminuria (≥30 to ≤300 mg/g)", "setting": "[2]; at Final Visit", "value": 16.0, "unit": "%"},
      {"measurement": "patients with normal UACR (<30 mg/g)", "setting": "[2]; at baseline and at Final Visit", "value": 57.7, "unit": "%"},
      {"measurement": "FPG, Change from baseline, adjusted mean", "setting": "[2]; [3]", "value": 19.7, "unit": "mg/dL"},
      {"measurement": "HBA1c, Change from baseline, adjusted mean", "setting": "[2]; [3]", "value": 0.15, "unit": "%"},
      {"measurement": "Creatinine, Change from baseline, adjusted mean", "setting": "[2]; [4]", "value": 0.09, "unit": "mg/dL"},
      {"measurement": "HDL, Change from baseline, adjusted mean", "setting": "[2]; [4]", "value": 0.3, "unit": "mg/dL"},
      {"measurement": "LDL, Change from baseline, adjusted mean", "setting": "[2]; [4]", "value": -6.5, "unit": "mg/dL"},
      {"measurement": "Total cholesterol, Change from baseline, adjusted mean", "setting": "[2]; [4]", "value": -5.0, "unit": "mg/dL"},
      {"measurement": "Triglyceride, Change from baseline, adjusted mean", "setting": "[2]; [4]", "value": 5.2, "unit": "mg/dL"},
      {"measurement": "Urinary albumin, Change from baseline, adjusted mean", "setting": "[2]; [4]", "value": 45.2, "unit": "mg/dL"},
      {"measurement": "third key secondary endpoint of treatment sustainability (on medication, HbA1c≤7.0%, no rescue, no >2% weight gain), responders", "setting": "[2]; between Visit 6 and Final Visit", "value": 14.1, "unit": "%"},
      {"measurement": "Hospitalization for heart failure (HHF), Incidence Rate per 1000 PY", "setting": "[2]; both, human, in vivo", "value": 5.3, "unit": "per 1000 PY"},
      {"measurement": "Hospitalization for heart failure (HHF), Number of Subjects", "setting": "[2]; both, human, in vivo", "value": 92},
      {"measurement": "Patients with any moderate/severe hypoglycemic episodes, Number of Subjects", "setting": "[2]; both, human, in vivo", "value": 791},
      {"measurement": "Patients with any moderate/severe hypoglycemic episodes, Subjects (%)", "setting": "[2]; both, human, in vivo", "value": 27.5, "unit": "%"},
      {"measurement": "Secondary CV composite (4P-MACE), Incidence Rate per 1000 PY", "setting": "[2]; both, human, in vivo", "value": 23.7, "unit": "per 1000 PY"},
      {"measurement": "rate of moderate or severe hypoglycemia", "setting": "[2]; [5]", "value": 30.9, "unit": "%"},
      {"measurement": "severe hypoglycemia (requiring assistance)", "setting": "[2]; [5]", "value": 2.2, "unit": "%"},
      {"measurement": "Hospitalization for heart failure (HHF), Subjects (%)", "setting": "[2]; [6]", "value": 3.1, "unit": "%"},
      {"measurement": "Premature discontinuation from trial medication due to adverse events", "setting": "[2]; [6]", "value": 17.4, "unit": "%"},
      {"measurement": "Primary CV composite (3P-MACE), Incidence Rate per 1000 PY", "setting": "[2]; [6]", "value": 21.2, "unit": "per 1000 PY"},
      {"measurement": "all-cause mortality, incidence rate per 1000 years at risk", "setting": "[2]; [6]", "value": 18.4, "unit": "per 1000 years at risk"},
      {"measurement": "any adjudicated event (secondary CV endpoint), % of patients", "setting": "[2]; [6]", "value": 17.8, "unit": "%"},
      {"measurement": "hospitalisation for heart failure combined with CV death, incidence rate per 1000 years at risk", "setting": "[2]; [6]", "value": 13.4, "unit": "per 1000 years at risk"},
      {"measurement": "hospitalisation for heart failure, incidence rate per 1000 years at risk", "setting": "[2]; [6]", "value": 5.3, "unit": "per 1000 years at risk"},
      {"measurement": "investigator-reported heart failure AEs, % of patients", "setting": "[2]; [6]", "value": 5.2, "unit": "%"},
      {"measurement": "investigator-reported heart failure AEs, incidence rate per 1000 years at risk", "setting": "[2]; [6]", "value": 9.0, "unit": "per 1000 years at risk"},
      {"measurement": "non-CV death, % of patients", "setting": "[2]; [6]", "value": 5.6, "unit": "%"},
      {"measurement": "non-CV death, incidence rate per 1000 years at risk", "setting": "[2]; [6]", "value": 9.2, "unit": "per 1000 years at risk"},
      {"measurement": "proportion of patients with CV death contributing to the 3P-MACE", "setting": "[2]; [6]", "value": 4.2, "unit": "%"},
      {"measurement": "proportion of patients with CV death contributing to the 4P-MACE", "setting": "[2]; [6]", "value": 4.1, "unit": "%"},
      {"measurement": "proportion of patients with hospitalisation for unstable angina pectoris contributing to the 4P-MACE", "setting": "[2]; [6]", "value": 1.8, "unit": "%"},
      {"measurement": "proportion of patients with non-fatal MI contributing to the 3P-MACE", "setting": "[2]; [6]", "value": 4.6, "unit": "%"},
      {"measurement": "proportion of patients with non-fatal MI contributing to the 4P-MACE", "setting": "[2]; [6]", "value": 4.3, "unit": "%"},
      {"measurement": "proportion of patients with non-fatal stroke contributing to the 3P-MACE", "setting": "[2]; [6]", "value": 3.4, "unit": "%"},
      {"measurement": "proportion of patients with non-fatal stroke contributing to the 4P-MACE", "setting": "[2]; [6]", "value": 3.3, "unit": "%"},
      {"measurement": "Patients with maintained glycemic control (HbA1c ≤7.0%), Number of Subjects", "setting": "[2]; [7]", "value": 554},
      {"measurement": "Patients with maintained glycemic control (HbA1c ≤7.0%), Subjects (%)", "setting": "[2]; [7]", "value": 18.5, "unit": "%"},
      {"measurement": "Patients with ≤2% weight gain, Number of Subjects", "setting": "[2]; [7]", "value": 699},
      {"measurement": "Patients with ≤2% weight gain, Subjects (%)", "setting": "[2]; [7]", "value": 23.3, "unit": "%"},
      {"measurement": "Secondary composite of treatment sustainability (on treatment, HbA1c ≤7.0%, no rescue, no moderate/severe hypoglycemic episodes, no >2% weight gain), Number of Subjects", "setting": "[2]; [8]", "value": 305},
      {"measurement": "Secondary composite of treatment sustainability (second key secondary endpoint), Subjects (%)", "setting": "[2]; [8]", "value": 10.2, "unit": "%"},
      {"measurement": "first intake of rescue medication, incidence rate per 1000 years at risk", "setting": "[2]; in vivo", "value": 115.5, "unit": "per 1000 years at risk"},
      {"measurement": "rate of patients who used rescue medication", "setting": "[2]; in vivo", "value": 47.1, "unit": "%"},
      {"measurement": "All-cause mortality, Incidence Rate per 1000 PY", "setting": "[2]; median follow-up 6.25 years", "value": 18.4, "unit": "per 1000 PY"},
      {"measurement": "All-cause mortality, Number of Subjects", "setting": "[2]; median follow-up 6.25 years", "value": 336},
      {"measurement": "All-cause mortality, Subjects (%)", "setting": "[2]; median follow-up 6.25 years", "value": "(11.2) %"},
      {"measurement": "HHF or CV death, Incidence Rate per 1000 PY", "setting": "[2]; median follow-up 6.25 years", "value": 13.4, "unit": "per 1000 PY"},
      {"measurement": "HHF or CV death, Number of Subjects", "setting": "[2]; median follow-up 6.25 years", "value": 234},
      {"measurement": "HHF or CV death, Subjects (%)", "setting": "[2]; median follow-up 6.25 years", "value": "(7.8) %"},
      {"measurement": "Secondary CV composite (cardiovascular death, non-fatal MI, non-fatal stroke and hospitalization for unstable angina; 4P-MACE), Number of Subjects", "setting": "[2]; median follow-up 6.25 years", "value": 401},
      {"measurement": "Primary CV composite (cardiovascular death, non-fatal MI, non-fatal stroke; 3P-MACE), Number of Subjects", "setting": "[2]; median follow-up 6.25 years, added to standard of care", "value": 362},
      {"measurement": "All-cause mortality, Subjects (%)", "setting": "[2]; [9]", "value": 12.3, "unit": "%"},
      {"measurement": "HHF or CV death, Subjects (%)", "setting": "[2]; [9]", "value": 7.8, "unit": "%"},
      {"measurement": "weight change (in words)", "setting": "[2]; over time", "value": "initial numerical weight increase"}
    ]}
  ]
}
